# Measurements published in patent publication US20060247223A1, “Non-imidazole alkylamines as histamine H3- receptor ligands and their therapeutic applications” (priority 1998, published 2006).
# Structures can show the parent of a compound that is named as a salt.
row,melting point [°C],Compound
1,119 to 120,"N#Cc1cccc(OCCCCCN2CCCC2)c1 (as salt: oxalate) [Example 41, 1-[5-(3-cyanophenoxy)-pentyl]-pyrrolidine]"
2,143 to 145,"CCN(CC)CCCCOc1ccc(C#N)cc1 (as salt: oxalate) [Example 56, N-[4-(4-cyanophenoxy)-butyl]-diethylamine]"
3,176 to 178,"O=C(Nc1ccc(OCCCCCN2CCCC2)cc1)c1ccccc1 (as salt: oxalate) [Example 49, 1-[5-(4-N-benzamidophenoxy)-pentyl]-pyrrolidine]"
4,148 to 150,CC(=O)CCc1ccc(OCCCN2CCCCC2)cc1.Cl
5,156 to 158,"COC(=O)c1ccc(OCCCN2CCCCC2)cc1 (as salt: oxalate) [Example 103, 1-[3-(4-carbomethoxyphenoxy)propyl]piperidine]"
6,153 to 155,"c1ccc(OCCCCCN2CCCC2)cc1 (as salt: oxalate) [Example 2, 1-(5-phenoxypentyl)-pyrrolidine]"
7,148 to 149,"CC1CCCN(CCCCCOc2ccc([N+](=O)[O-])cc2)C1 (centres unmarked) (as salt: oxalate) [Example 38, 1-[5-(4-nitrophenoxy)-pentyl]-3-methyl-piperidine]"
8,121 to 122,"CC(C)C(=O)c1ccc(OCCCN2CCCCC2)cc1 (as salt: oxalate) [Example 72, 1-[3-(4-isobutyrylphenoxy)-propyl]-piperidine]"
9,135 to 136,"c1ccc(Oc2ccc(OCCCCCN3CCCC3)cc2)cc1 (as salt: oxalate) [Example 48, 1-[5-(4-phenoxyphenoxy)-pentyl]-pyrrolidine]"
10,148 to 150,"CC(=O)c1ccc(OCC(C)CN2CCCCC2)cc1 (centres unmarked) (as salt: oxalate) [Example 80, 1-[3-(4-acetylphenoxy)-2-S-methylpropyl]piperidine]"
11,108 to 110,"CCN(CC)CCCOc1ccc(C(C)=O)cc1 (as salt: oxalate) [Example 46, N-[3-(4-acetylphenoxy)-propyl]-diethylamine]"
12,152 to 153,"O=Cc1ccc(OCCCN2CCCCC2)cc1 (as salt: oxalate) [Example 71, 1-[3-(4-formylphenoxy)-propyl]-piperidine]"
13,119 to 121,"CC1CCN(CCCOc2ccc([N+](=O)[O-])cc2)CC1 (as salt: oxalate) [Example 86, 1-[3-(4-nitrophenoxy)propyl]4-methylpiperidine]"
14,90 to 91,"CCCN(CC)CCCCCOc1ccccc1 (as salt: oxalate) [Example 6, N-ethyl-N-(5-phenoxypentyl)-propylamine]"
15,185 to 187,CCC(=NOC)c1ccc(OCCCN2CCCCC2C)cc1.Cl (centres unmarked)
16,163 to 165,"CCC(=O)c1ccc(OCCCN2CCC(C)CC2)cc1 (as salt: oxalate) [Example 94, 1-[3-(4-propionylphenoxy)propyl]-4-methylpiperidine]"
17,110 to 112,"CCN(CC)CCCCCCOc1ccc(C#N)cc1 (as salt: oxalate) [Example 61, N-[6-(4-cyanophenoxy)-hexyl]-diethylamine]"
18,136 to 138,"C[C@H]1C[C@H](C)CN(CCCOc2ccc(C(=O)C3CC3)cc2)C1 (relative stereo) (as salt: oxalate) [Example 101, 1-[3-(4-cyclopropanecarbonylphenoxy)propyl]-trans-3,5 dimethylpiperidine]"
19,115 to 116,"N#Cc1ccc(OCCCCCN2CCCCC2)cc1 (as salt: oxalate) [Example 52, 1-[5-(4-cyanophenoxy)-pentyl]-piperidine]"

row,melting point [°C],Compound
1,120 to 122,"CCN(CC)CCCCCOc1ccc(C#N)cc1 (as salt: oxalate) [Example 51, 1-[5-(4-cyanophenoxy)-pentyl]-diethylamine]"
2,159 to 160,"CC(=O)c1ccc(OCCCN2CCCCC2)cc1 (as salt: oxalate) [Example 65, 1-[3-(4-acetylphenoxy)-propyl]-piperidine]"
3,99 to 100,"CCN(CC)CCCOc1ccc(/C(C)=N/O)cc1 (as salt: oxalate) [Example 64, 4-(3-diethylaminopropoxy)-acetophenone-oxime]"
4,154 to 155,"C[C@H]1C[C@H](C)CN(CCCCCOc2ccccc2)C1 (stereo in doubt) (as salt: oxalate) [Example 12, 1-(5-phenoxypentyl)-3,5-trans-dimethyl-piperidine]"
5,132 to 134,"c1ccc(OCCCCCN2CCCCCC2)cc1 (as salt: oxalate) [Example 5, N-(5-phenoxypentyl)-hexamethyleneimine]"
6,135 to 136,C[C@@H]1CCC[C@H](C)N1CCCCCOc1ccccc1.Cl
7,154 to 155,"C[C@@H]1C[C@H](C)CN(CCCCCOc2ccccc2)C1 (as salt: oxalate) [Example 13, 1-(5-phenoxypentyl)-3,5-cis-dimethyl-piperidine]"
8,130 to 132,"C[C@@H]1C[C@H](C)CN(CCCOc2ccc(C(=O)C3CC3)cc2)C1 (as salt: oxalate) [Example 102, 1-[3-(4-cyclopropylcarbonylphenoxy)propyl]-cis-3,5-dimethylpiperidine]"
9,151 to 152,"CC1CCN(CCCCCOc2ccccc2)CC1 (as salt: oxalate) [Example 9, 1-(5-phenoxypentyl)-4-methyl-piperidine]"
10,177 to 180,CC1CCCCN1CCCOc1ccc(C#N)cc1.Cl (centres unmarked)
11,165 to 166,"CCCC1CCN(CCCCCOc2ccccc2)CC1 (as salt: oxalate) [Example 8, 1-(5-phenoxypentyl)-4-propyl-piperidine]"
12,149 to 151,"CC(=O)c1ccc(OC[C@H](C)CN2CCCCC2)cc1 (as salt: oxalate) [Example 77, 1-[3-(4-acetylphenoxy)-2-R-methylpropyl]piperidine]"
13,160 to 161,"CC(=O)c1ccc(OCCCN2CCC(C)CC2)cc1 (as salt: oxalate) [Example 68, 1-[3-(4-acetylphenoxy)-propyl]-4-methyl-piperidine]"
14,131 to 132,"c1cc2c(cc1OCCCCCN1CCCC1)CCCC2 (as salt: oxalate) [Example 27, 1-{5-[2-(5,6,7,8-tetrahydronaphthyl)-oxy]-pentyl}-pyrrolidine]"
15,160 to 161,"CCN(CC)CCCOc1ccc([N+](=O)[O-])cc1 (as salt: oxalate) [Example 42, N-[3-(4-nitrophenoxy)-propyl]-diethylamine]"
16,114 to 116,"c1ccc(SCCCCN2CCCC2)cc1 (as salt: oxalate) [Example 34, 1-(4-phenylthiobutyl)-pyrrolidine]"
17,140 to 141,"CC1CCCN(CCCCCOc2ccccc2)C1 (centres unmarked) [Example 10, 1-(5-phenoxypentyl)-3-methyl-piperidine]"
18,171 to 172,"CC(=O)c1ccc(OCCCN2C[C@@H](C)C[C@H](C)C2)cc1 (stereo in doubt) (as salt: oxalate) [Example 67, 1-[3-(4-acetylphenoxy)-propyl]-3,5-trans-dimethyl-piperidine]"

row,Compound,melting point [°C]
1,"N#Cc1ccc(OCCCN2CCCCCC2)cc1 (as salt: oxalate) [Example 60, N-[3-(4-cyanophenoxy)-propyl]-hexamethyleneimine]",124 to 125
